Experimental findings from ChEMBL document CHEMBL4177553, “Rapid screening the potential mechanism-based inhibitors of CYP3A4 from Tripterygium wilfordi based on computer approaches combined with in vitro bioassay” (Bioorg Med Chem, 2017) are described below.

SMILES strings stand for the structures.

Series [1] addresses Cytochrome P450 2D6 (Homo sapiens, UniProt P10635). Description: Inhibition of CYP2D6 in human liver microsomes assessed as reduction in formation of dextromethorphan to dextrorphan at 50 uM preincubated for 30 mins followed by substrate addition measured after 15 mins in presence of NADPH by UPLC-MS analysis. It is filed as ADME. The settings on record: 0.25 h. For orientation: Liver microsomes are a subcellular fraction often used to study metabolism.

The target of series [2] is T1, Cytochrome P450 1A2 (Homo sapiens, UniProt P05177).
T1 sequence (P05177 whole entry): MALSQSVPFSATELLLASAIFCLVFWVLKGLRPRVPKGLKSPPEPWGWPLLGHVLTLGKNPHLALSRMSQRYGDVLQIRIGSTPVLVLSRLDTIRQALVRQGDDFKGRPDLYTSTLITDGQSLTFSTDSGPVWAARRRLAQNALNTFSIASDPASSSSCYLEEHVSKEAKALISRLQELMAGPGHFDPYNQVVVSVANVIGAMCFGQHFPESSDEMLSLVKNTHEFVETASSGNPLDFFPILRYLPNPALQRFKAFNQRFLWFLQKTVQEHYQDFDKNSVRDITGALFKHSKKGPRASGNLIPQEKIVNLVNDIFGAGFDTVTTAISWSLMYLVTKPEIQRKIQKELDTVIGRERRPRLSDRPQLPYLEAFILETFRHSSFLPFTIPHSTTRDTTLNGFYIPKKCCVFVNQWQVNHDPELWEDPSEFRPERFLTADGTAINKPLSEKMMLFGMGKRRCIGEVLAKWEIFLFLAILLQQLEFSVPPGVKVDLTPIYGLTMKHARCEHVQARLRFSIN
Description: Inhibition of CYP1A2 in human liver microsomes assessed as reduction in formation of phenacetin to acetaminophen at 50 uM preincubated for 30 mins followed by substrate addition measured after 15 mins in presence of NADPH by UPLC-MS analysis. It is filed as ADME. Particulars: 0.25 h; call rule not given here.

Series [3] has as its target Cytochrome P450 2E1 (Homo sapiens, UniProt P05181). Description: Inhibition of CYP2E1 in human liver microsomes assessed as reduction in formation of chlorzoxazone to 6-Hydroxy chlorzoxazone at 50 uM preincubated for 30 mins followed by substrate addition measured after 15 mins in presence of NADPH by UPLC-MS analysis. Particulars: 0.25 h. It is filed as ADME.
For series [4], the target named is Cytochrome P450 2C9 (Homo sapiens, UniProt P11712). Description: Inhibition of CYP2C9 in human liver microsomes assessed as reduction in formation of tolbutamide to 4-Hydroxytolbutamide at 50 uM preincubated for 30 mins followed by substrate addition measured after 15 mins in presence of NADPH by UPLC-MS analysis. The settings on record: 0.25 h. It is filed as ADME.
Cytochrome P450 2C9, sequence (P11712 whole entry): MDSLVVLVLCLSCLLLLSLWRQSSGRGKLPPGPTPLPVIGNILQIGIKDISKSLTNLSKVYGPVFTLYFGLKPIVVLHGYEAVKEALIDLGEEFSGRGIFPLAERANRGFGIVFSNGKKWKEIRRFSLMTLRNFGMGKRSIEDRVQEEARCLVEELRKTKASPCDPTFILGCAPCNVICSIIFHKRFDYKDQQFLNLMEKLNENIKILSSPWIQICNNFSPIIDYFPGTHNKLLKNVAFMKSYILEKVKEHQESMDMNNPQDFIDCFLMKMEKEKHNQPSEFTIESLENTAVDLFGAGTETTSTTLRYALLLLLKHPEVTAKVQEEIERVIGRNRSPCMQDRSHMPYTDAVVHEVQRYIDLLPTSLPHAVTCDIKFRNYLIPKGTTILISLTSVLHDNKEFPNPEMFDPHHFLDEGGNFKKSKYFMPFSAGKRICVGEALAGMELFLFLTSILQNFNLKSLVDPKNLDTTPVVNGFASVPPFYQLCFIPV

The target of series [5] is T2, Cytochrome P450 3A4 (Homo sapiens, UniProt P08684). Description: Inhibition of CYP3A4 in human liver microsomes assessed as reduction in formation of midazolam to 1-Hydroxy midazolam at 50 uM preincubated for 30 mins followed by substrate addition measured after 15 mins in presence of NADPH by UPLC-MS analysis. It is filed as ADME. Particulars: 0.25 h.
T2 sequence (P08684 whole entry): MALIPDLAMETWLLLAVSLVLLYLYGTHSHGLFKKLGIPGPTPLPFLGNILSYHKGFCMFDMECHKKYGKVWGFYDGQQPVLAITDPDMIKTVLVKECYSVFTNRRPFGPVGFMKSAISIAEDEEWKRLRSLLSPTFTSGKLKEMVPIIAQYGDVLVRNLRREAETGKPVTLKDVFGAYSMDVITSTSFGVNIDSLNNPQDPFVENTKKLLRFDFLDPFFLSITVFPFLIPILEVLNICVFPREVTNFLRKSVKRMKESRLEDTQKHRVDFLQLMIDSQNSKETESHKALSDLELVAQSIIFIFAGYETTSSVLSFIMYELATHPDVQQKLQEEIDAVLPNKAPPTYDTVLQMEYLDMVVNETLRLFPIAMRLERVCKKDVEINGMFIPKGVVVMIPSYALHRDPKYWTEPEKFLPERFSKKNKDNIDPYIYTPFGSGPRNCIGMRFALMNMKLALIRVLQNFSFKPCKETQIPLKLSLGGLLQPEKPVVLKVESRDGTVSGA
In series [6] the target is Cytochrome P450 2C19 (Homo sapiens, UniProt P33261). The experiment in a line: Inhibition of CYP2C19 in human liver microsomes assessed as reduction in formation of mephenytoin to 4-Hydroxy mephenytoin at 50 uM preincubated for 30 mins followed by substrate addition measured after 15 mins in presence of NADPH by UPLC-MS analysis. The settings on record: 0.25 h. It is filed as ADME.
Cytochrome P450 2C19, sequence (P33261 whole entry): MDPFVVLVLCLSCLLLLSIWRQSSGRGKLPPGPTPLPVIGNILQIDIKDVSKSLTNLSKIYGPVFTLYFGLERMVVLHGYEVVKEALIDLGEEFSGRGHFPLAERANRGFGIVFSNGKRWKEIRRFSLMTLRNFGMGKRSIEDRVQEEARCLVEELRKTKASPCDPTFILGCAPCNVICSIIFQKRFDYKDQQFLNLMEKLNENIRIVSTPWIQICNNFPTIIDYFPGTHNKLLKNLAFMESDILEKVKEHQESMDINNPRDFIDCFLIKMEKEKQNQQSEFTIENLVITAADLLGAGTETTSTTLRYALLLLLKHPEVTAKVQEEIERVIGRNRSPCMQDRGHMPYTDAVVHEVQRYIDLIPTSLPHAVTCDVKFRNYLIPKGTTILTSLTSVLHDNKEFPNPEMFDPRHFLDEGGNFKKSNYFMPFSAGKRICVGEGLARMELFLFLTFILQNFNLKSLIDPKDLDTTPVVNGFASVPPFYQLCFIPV

Series [7] deals with T2, Cytochrome P450 3A4. Description: Drug metabolism in human liver microsomes assessed as CYP3A4-mediated M1 metabolite formation at […] preincubated for 5 mins followed by NADPH addition measured after 2 hrs by UPLC-MS/MS analysis. It is filed as ADME.
The target of series [8] is T2, Cytochrome P450 3A4. The experiment in a line: Inhibition of CYP3A4 in human liver microsomes assessed as reduction in formation of midazolam to 1-Hydroxy midazolam at 50 uM preincubated for 30 mins followed by substrate addition measured after 15 mins in presence of varying levels of NADPH by UPLC-MS analysis. The settings on record: 0.25 h. It is filed as ADME.
Series [9] concerns the target T2, Cytochrome P450 3A4. The experiment in a line: Inhibition of CYP3A4 in human liver microsomes assessed as reduction in formation of midazolam to 1-Hydroxy midazolam preincubated for 30 mins followed by substrate addition measured after 15 mins in presence of NADPH by UPLC-MS analysis. Particulars: 0.25 h. It is filed as ADME.
Series [10] is described as follows: Drug metabolism in human liver microsomes assessed as monohydroxy formation in presence of GSH and water by UPLC-MS/MS analysis. It is filed as ADME, microsome.
Series [11] has as its target T2, Cytochrome P450 3A4. Description: Drug metabolism in human liver microsomes assessed as CYP3A4-mediated M2 metabolite formation at […] preincubated for 5 mins followed by NADPH addition measured after 2 hrs by UPLC-MS/MS analysis. It is filed as ADME.
Series [12] is described as follows: Retention time of the compound in human liver microsomes by UPLC-MS/MS analysis. It is filed as ADME, microsome.
Series [13] addresses T2, Cytochrome P450 3A4. The experiment in a line: Drug metabolism in human liver microsomes assessed as CYP3A4-mediated metabolite formation at […] preincubated for 5 mins followed by NADPH addition measured after 2 hrs by UPLC-MS/MS analysis. It is filed as ADME.

Cytochrome P450 2E1, sequence (P05181 whole entry): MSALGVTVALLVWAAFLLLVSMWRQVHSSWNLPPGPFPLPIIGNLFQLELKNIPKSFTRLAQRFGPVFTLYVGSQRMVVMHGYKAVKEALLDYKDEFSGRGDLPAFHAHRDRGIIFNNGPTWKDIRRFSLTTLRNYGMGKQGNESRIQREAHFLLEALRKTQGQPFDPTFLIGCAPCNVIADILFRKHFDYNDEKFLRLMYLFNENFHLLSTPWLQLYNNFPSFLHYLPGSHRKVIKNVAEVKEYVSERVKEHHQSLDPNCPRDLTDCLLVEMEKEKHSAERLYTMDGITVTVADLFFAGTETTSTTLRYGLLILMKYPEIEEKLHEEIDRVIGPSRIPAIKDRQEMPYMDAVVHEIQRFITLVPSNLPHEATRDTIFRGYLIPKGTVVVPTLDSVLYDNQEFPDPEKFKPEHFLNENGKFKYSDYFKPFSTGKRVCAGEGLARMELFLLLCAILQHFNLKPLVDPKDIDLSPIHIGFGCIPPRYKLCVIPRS
Cytochrome P450 2D6, sequence (P10635 whole entry): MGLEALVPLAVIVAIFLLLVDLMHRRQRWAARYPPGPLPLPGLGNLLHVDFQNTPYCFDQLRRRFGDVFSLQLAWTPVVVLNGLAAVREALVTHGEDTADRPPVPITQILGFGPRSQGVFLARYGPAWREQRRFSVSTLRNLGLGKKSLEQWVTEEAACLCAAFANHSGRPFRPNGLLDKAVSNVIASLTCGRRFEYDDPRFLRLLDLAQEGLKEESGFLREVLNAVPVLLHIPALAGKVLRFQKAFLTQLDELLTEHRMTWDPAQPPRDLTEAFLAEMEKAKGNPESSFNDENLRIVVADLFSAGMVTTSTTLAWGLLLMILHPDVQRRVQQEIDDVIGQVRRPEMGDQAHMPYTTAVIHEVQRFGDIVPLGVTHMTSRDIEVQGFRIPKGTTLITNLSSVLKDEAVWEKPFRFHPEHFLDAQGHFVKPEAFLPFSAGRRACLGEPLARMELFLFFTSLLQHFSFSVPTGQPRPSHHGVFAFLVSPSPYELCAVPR

As for `CC(=O)OC[C@]12[C@H](OC(C)=O)[C@H](OC(C)=O)[C@@H]3[C@@H](OC(C)=O)[C@@]14O[C@@]3(C)COC(=O)c1cccnc1CC[C@@](C)(O)C(=O)O[C@@H]([C@H](OC(=O)c1ccccc1)[C@@H]2OC(C)=O)[C@]4(C)O`, the “inhibition (INH)” value in series [1], in series [2], in series [3], in series [4], in series [5] and in series [6] was “Active” throughout.
On to `CC(=O)OC[C@]12[C@H](OC(C)=O)[C@H](OC(C)=O)[C@@H]3[C@@H](OC(C)=O)[C@@]14O[C@@]3(C)COC(=O)c1cccnc1CC[C@H](C)C(=O)O[C@@H]([C@H](OC(=O)c1ccccc1)[C@@H]2OC(C)=O)[C@]4(C)O`, for which the “inhibition (INH)” value in series [1], in series [2], in [3], in [4], in [5] and in [6] was “Active” throughout.
`CC(=O)OC[C@]12[C@H](OC(C)=O)[C@H](OC(C)=O)[C@@H]3[C@@H](OC(C)=O)[C@@]14O[C@@]3(C)COC(=O)c1cccnc1CC[C@@](C)(O)C(=O)O[C@@H]([C@H](OC(=O)c1ccoc1)[C@@H]2OC(C)=O)[C@]4(C)O`: the “inhibition (INH)” value in [1] is “Not Active”; in series [2] it was “Not Active”; in series [3] it was “Not Active”; in [8], “Active”; in series [9], “Dose-dependent effect”; in [4] it was “Not Active”. Besides, the “inhibition (INH)” value is on record as “Active” in series [5] and “Not Active” in series [6]. Moreover, the Drug metabolism entry in [7], in series [10] and in [11] was “Metabolite_Detected” in each case. In series [12], this compound yielded a Retention_time of 10.55 min.
Regarding `CC(=O)OC[C@]12[C@H](OC(C)=O)[C@H](OC(C)=O)[C@@H]3[C@@H](OC(C)=O)[C@@]14O[C@@]3(C)COC(=O)c1cccnc1CCC(C)C(=O)O[C@@H]([C@H](OC(=O)c1ccoc1)[C@@H]2OC(C)=O)[C@]4(C)O` (stereo not given in full), the “inhibition (INH)” value in series [1] is listed as “Not Active”; in series [2], “Not Active”; in series [3], “Not Active”; in series [8], “Not Active”; in [4], “Not Active”; in series [5] it was “Active”. Further, the “inhibition (INH)” value in series [6] is “Not Active”. Moreover, the Drug metabolism result in [13] was “Metabolite_Notdetected”.
Turning to `CC(=O)OC[C@@]12[C@H](OC(C)=O)[C@H](OC(C)=O)[C@@H]3[C@@H](OC(C)=O)[C@@]14O[C@@]3(C)COC(=O)c1cccnc1[C@@H](C)[C@H](C)C(=O)O[C@@H]([C@H](OC(C)=O)[C@@H]2OC(C)=O)[C@]4(C)O`, the “inhibition (INH)” value was “Not Active” in series [1]; “Not Active” in series [2]; “Not Active” in series [3]; “Not Active” in series [8]; “Not Active” in [4]; “Active” in [5]. Further, the “inhibition (INH)” value in series [6] is “Not Active”. Besides, the Drug metabolism entry in series [13] was “Metabolite_Notdetected”.
